Marks after values point to notes of the source that are not given here. Non-standard residues stand in square brackets, D forms with d. Residues, ends and D or L forms follow the SMILES beside them. Nspe = C[C@H](NCC(=O)O)c1ccccc1; Nphe = O=C(O)CNCc1ccccc1; Nlys = NCCCCNCC(=O)O
Columns and labels:
[1] = system: EGFP-Luc plasmid; assay: DNA retardation assay (gel electrophoresis); type: binding; settings: EGFP-Luc plasmid in TBS, complexes 20 min at room temperature, 1–2% agarose gel
Protocol: DNA retardation was analyzed by gel electrophoresis. Peptoid/peptide-DNA complexes were formed by adding 10 µL of peptide/peptoid solution of varying concentrations to 10 µL DNA solution (EGFP-Luc plasmid in Tris-buffered saline (TBS) buffer), and the resulting solution was mixed by gentle aspiration. Complexes were incubated for 20 min at room temperature. After complex formation, 20 µL of each sample were loaded onto a 1–2% agarose gel in Tris/borate/EDTA (TBE) buffer, which ran at 120 V for 15 min. DNA bands on the gel were visualized under UV light by ethidium bromide staining.

[2] = RP-HPLC elution (% ACN) as measure of hydrophobicity; type: physicochemical; settings: chromatographic hydrophobicity; gradient of 5–95% acetonitrile (ACN) over 45 minutes, C18 column, 0.2 mL/min; average of three replicates
[3] = system: E. coli ATCC 35218; assay: Bacterial count by plating after treatment, before TEM sample preparation; type: cell-based; settings: 1 hour in PBS pH 7.4, control 1 × 10^8 CFU/mL
Protocol: E. coli ATCC 35218, grown overnight at 35 °C in Mueller-Hinton broth (MHB), were resuspended in 1X (150 mM) PBS, pH 7.4, and diluted to a concentration of 1 × 10^8 CFU/mL. Aqueous peptide/peptoid stock solutions were added to 1 mL aliquots of the suspension to the desired final concentration. After 1 hour, small volumes of each sample were serially diluted, plated, and incubated overnight at 35 °C, to be counted the following day. The remaining volume of each sample was centrifuged, and the pellet resuspended and enrobed in 5–10 µL of 2% low-melting agarose (gelling temperature 25° ± 5 °C) then drawn up into the tip of a Pasteur pipette. The solidified rods were extruded into fixative (2% glutaraldehyde, 2% paraformaldehyde, 50 mM PBS, pH 7.4). […] 50 nm thin sections of embedded samples were cut using a diamond knife, stained for 5 min in 5% aqueous uranyl acetate, then rinsed in H2O. Sections were examined in a JEOL 1230 TEM. Experimental conditions were each repeated in at least two independent trials. For each replicate of each sample, bacteria across the thin section were first surveyed to determine morphological characteristics representative of that sample, then images were captured of at least five bacteria displaying those morphologies with an emphasis on clean (i.e., orthogonal) transverse and/or longitudinal sections. Each image shown is thus representative of the ultrastructural characteristics observed in bacteria throughout a given sample and between replicates.

[4] = system: Bioluminescent P. aeruginosa; type: cell-based, Pseudomonas aeruginosa; settings: 12.5 µM, LB, 37 °C
Protocol: The decrease in bioluminescence at 37 °C was measured for a range of concentrations from 0 – 100 μM (Supp. Figs. S6 and S7).
Bioluminescent P. aeruginosa [73] was grown at 37 °C in Luria-Bertani (LB) broth. […] In a 96-well plate, 50 µL of P. aeruginosa solution (1 × 10^6 CFU/mL) was added to 50 µL of antimicrobial solution, and the bioluminescence was measured using an IVIS imaging system (a Xenogen product from Caliper Life Sciences, Hopkinton, MA) at 10 min intervals for 2 h. The reported values are the average of three independent experiments with two replicates each.

[5] = system: P. aeruginosa; assay: Bacterial plating of P. aeruginosa (CFU); type: cell-based, Pseudomonas aeruginosa; settings: 12.5 µM, LB, 37 °C, average of three replicates
Protocol: To further explore the mechanism of action, we studied the killing kinetics of AMPs, ampetoids, and conventional antibiotics against luciferase-expressing Pseudomonas aeruginosa, another Gram-negative bacterium, against which these peptoids have previously proven to be effective[61]. The decrease in bioluminescence at 37 °C was measured for a range of concentrations from 0 – 100 μM (Supp. Figs. S6 and S7).
The bacterial counts were determined by plating serial dilutions of samples on LB plates and counting bacterial colonies. The reported values are the average of three replicates.

[6] = system: E. coli bacterial ribosomes; assay: Aggregation of bacterial ribosomes (optical density at 550 nm); type: biochemical; settings: 1 µM ribosome solution, antimicrobial up to 800 µM, 10 min, λ = 550 nm
Protocol: In a microcentrifuge tube, 5 µl of 1 µM purified bacterial ribosome solution (~40X diluted (v/v) from their intracellular concentration in bacterial cytosol)[62] was incubated with 5 µl of antimicrobial solution in a concentration range of 0–800 µM for 10 min. The absorbance of the solution was measured by UV-Vis spectroscopy at λ = 550 nm by a spectrophotometer (ND-1000, Thermo Scientific, Wilmington, DE). The values are reported as the average of three independent experiments with three replicates each.

[7] = system: Erythrocytes; assay: Hemolysis assay; type: cell-based; settings: human erythrocytes in PBS pH 7.4, 1 h at 37 °C, A350; three independent replicates (two for LL-37 and fowlicidin-1)
Protocol: The plate was then centrifuged at 1200 g for 15 min, 100 μL of the supernatant from each well transferred to a fresh microtiter plate, and A350 measured.

[8] = system: E. coli ATCC 35218; type: cell-based; settings: CAMHB, 35 °C, 16 h, final 5 × 10^5 CFU/mL; reproducible between three independent replicates
Protocol: MICs were determined according to CLSI M7-A6 protocols in a 96-well microtiter plate. In test wells, 50 μL bacterial inoculum (1 × 10^6 CFU/ml) in cation-adjusted Mueller-Hinton broth (CAMHB) was added to 50 μL peptoid solution in CAMHB (prepared by 1:2 serial dilutions). Positive controls contained 50 μL inoculum and 50 μL CAMHB without peptoid. […] MIC values reported were reproducible between three independent experimental replicates, each consisting of two parallel trials.

[9] = average of three independent experiments with two replicates each

With `NCCCCNCC(=O)N(CC(=O)N(CC(=O)N(CCCCN)CC(=O)N(CC(=O)N(CC(=O)N(CCCCN)CC(=O)N(CC(=O)N(CC(=O)N(CCCCN)CC(=O)N(CC(=O)N(CC(N)=O)Cc1ccccc1)Cc1ccccc1)Cc1ccccc1)Cc1ccccc1)Cc1ccccc1)Cc1ccccc1)Cc1ccccc1)Cc1ccccc1` [1 achiral] (H-[Nlys][Nphe][Nphe][Nlys][Nphe][Nphe][Nlys][Nphe][Nphe][Nlys][Nphe][Nphe]-NH2) the “Retardation assay: mass of compound required to completely retard migration of 1 µg of DNA” value [1] was 1.5 µg, the “% ACN at RP-HPLC elution” value [2] was 60.4% and the “TEM: Bacterial count after 10 µM treatment (% of control)” value [3] was 100 % of control. For the same compound, the “TEM: Bacterial count after 100 µM treatment (% of control)” value [3] was 0.03 % of control and the “Decrease in bioluminescence within 10 min” value ([4]; 10 min, average of three independent experiments with two replicates each) was ~ 99.9%.

For `C[C@@H](c1ccccc1)N(CC(N)=O)C(=O)CN(CCCCN)C(=O)CN(CCCCN)C(=O)CN(C(=O)CN(C(=O)CN(CCCCN)C(=O)CN(C(=O)CN(CCCCN)C(=O)CN(CCCCN)C(=O)CN(C(=O)CN(C(=O)CNCCCCN)[C@@H](C)c1ccccc1)[C@@H](C)c1ccccc1)[C@@H](C)c1ccccc1)[C@@H](C)c1ccccc1)[C@@H](C)c1ccccc1` [1-NLys5,11] (H-[Nlys][Nspe][Nspe][Nlys][Nlys][Nspe][Nlys][Nspe][Nspe][Nlys][Nlys][Nspe]-NH2; N-terminus and C-terminus assumed), the “Retardation assay: mass of compound required to completely retard migration of 1 µg of DNA” value [1] was 1.0 µg, the “% ACN at RP-HPLC elution” value [2] was 51.2% and the “TEM: Bacterial count after 10 µM treatment (% of control)” value [3] was 100 % of control. The “TEM: Bacterial count after 100 µM treatment (% of control)” value [3] was 30 % of control.

For `C[C@@H](c1ccccc1)N(CC(N)=O)C(=O)CN(C(=O)CN(CCCCN)C(=O)[C@@H]1CCCN1C(=O)CN(C(=O)CN(CCCCN)C(=O)CN(C(=O)CN(C(=O)CN(CCCCN)C(=O)CN(C(=O)CN(C(=O)CNCCCCN)[C@@H](C)c1ccccc1)[C@@H](C)c1ccccc1)[C@@H](C)c1ccccc1)[C@@H](C)c1ccccc1)[C@@H](C)c1ccccc1)[C@@H](C)c1ccccc1` [1-Pro9] (H-[Nlys][Nspe][Nspe][Nlys][Nspe][Nspe][Nlys][Nspe]P[Nlys][Nspe][Nspe]-NH2), the “% ACN at RP-HPLC elution” value [2] was 62.6% and the “Decrease in bioluminescence at 2 h” value [4, 9] was ~ 20%.

For `O=C(O)c1cn(C2CC2)c2cc(N3CCNCC3)c(F)cc2c1=O` [Ciprofloxacin], the “Killing of bacteria within 10 minutes (CFU plating, in words)” value (“Killing of bacteria within 10 minutes” below) [5] was “did not kill bacteria”, the “Aggregation of ribosomes (in words)” value [6] was “no aggregation” and the “Decrease in bioluminescence at 1 h” value ([4]; 1 h, average of three independent experiments with two replicates each) was ~ 97%.

In the case of `CC[C@H](C)[C@H](NC(=O)[C@H](CCCCN)NC(=O)[C@H](CCC(=O)O)NC(=O)[C@H](CCCCN)NC(=O)[C@H](CO)NC(=O)[C@H](CCCCN)NC(=O)[C@H](CCCNC(=N)N)NC(=O)[C@H](Cc1ccccc1)NC(=O)[C@H](Cc1ccccc1)NC(=O)[C@H](CC(=O)O)NC(=O)CNC(=O)[C@H](CC(C)C)NC(=O)[C@@H](N)CC(C)C)C(=O)NCC(=O)N[C@@H](CCCCN)C(=O)N[C@@H](CCC(=O)O)C(=O)N[C@@H](Cc1ccccc1)C(=O)N[C@@H](CCCCN)C(=O)N[C@@H](CCCNC(=N)N)C(=O)N[C@H](C(=O)N[C@H](C(=O)N[C@@H](CCC(N)=O)C(=O)N[C@@H](CCCNC(=N)N)C(=O)N[C@H](C(=O)N[C@@H](CCCCN)C(=O)N[C@@H](CC(=O)O)C(=O)N[C@@H](Cc1ccccc1)C(=O)N[C@@H](CC(C)C)C(=O)N[C@@H](CCCNC(=N)N)C(=O)N[C@@H](CC(N)=O)C(=O)N[C@@H](CC(C)C)C(=O)N[C@H](C(=O)N1CCC[C@H]1C(=O)N[C@@H](CCCNC(=N)N)C(=O)N[C@H](C(=O)N[C@@H](CCC(=O)O)C(=O)N[C@@H](CO)C(=O)O)[C@@H](C)O)C(C)C)[C@@H](C)CC)C(C)C)[C@@H](C)CC` [LL-37, reference compound], the “HD10 (hemolytic dose; concentration for 10% hemolysis)” value [7] is reported as >100/>100^§ µM, the “HD50 (hemolytic dose; concentration for 50% hemolysis)” value [7] is reported as >100/>100^§ µM and the “E. coli ATCC 35218 MIC” value [8] is reported as 12.5 µM.

In the case of `CC[C@H](C)[C@H](NC(=O)CN)C(=O)NCC(=O)N[C@@H](C)C(=O)N[C@H](C(=O)N[C@@H](CC(C)C)C(=O)N[C@@H](CCCCN)C(=O)N[C@H](C(=O)N[C@@H](CC(C)C)C(=O)N[C@H](C(=O)N[C@H](C(=O)NCC(=O)N[C@@H](CC(C)C)C(=O)N1CCC[C@H]1C(=O)N[C@@H](C)C(=O)N[C@@H](CC(C)C)C(=O)N[C@H](C(=O)N[C@@H](CO)C(=O)N[C@@H](Cc1c[nH]c2ccccc12)C(=O)N[C@H](C(=O)N[C@@H](CCCCN)C(=O)N[C@@H](CCCNC(=N)N)C(=O)N[C@@H](CCCCN)C(=O)N[C@@H](CCCNC(=N)N)C(=O)N[C@@H](CCC(N)=O)C(=O)N[C@@H](CCC(N)=O)C(N)=O)[C@@H](C)CC)[C@@H](C)CC)[C@@H](C)O)[C@@H](C)O)C(C)C)C(C)C` [melittin, reference compound], the “E. coli ATCC 35218 MIC” value [8] is reported as 12.5 µM.

With `CN(C)[C@@H]1C(O)=C(C(N)=O)C(=O)[C@@]2(O)C(O)=C3C(=O)c4c(O)cccc4[C@@](C)(O)[C@H]3C[C@@H]12` [tetracycline] the “Killing of bacteria within 10 minutes” value [5] was “did not kill bacteria”, the “Aggregation of ribosomes (in words)” value [6] was “no aggregation” and the “Decrease in bioluminescence at 2 h” value [4, 9] was ~ 97%.

For oligomycin A, the “Killing of bacteria within 10 minutes” value [5] was “did not kill bacteria”, the “Aggregation of ribosomes (in words)” value [6] was “no aggregation” and the “Activity in bioluminescence kinetics assay (in words)” value ([4]; up to 2 h) was “inactive”.

Reference: article PMC5711933, “Intracellular biomass flocculation as a key mechanism of rapid bacterial killing by cationic, amphipathic antimicrobial peptides and peptoids” (Scientific Reports, 2017)
